According to patent publication US20060148732A1, “Inhibition of NF-kappaB by triterpene compositions” (priority 2000, published 2006):

What was measured:
PARP in Jurkat cells = assay: Immunoblot analysis of PARP degradation; assay type: cell-based, human; settings: 2 μg/ml
Method: Apoptosis induced by F035 & D1 was examined by proteolytic cleavage of poly (ADP-ribose) polymerase (PARP). Jurkat cells (2×10^6/ml) were treated with F035 (2 μg/ml) and D1 (2 μg/ml) for different lengths of time. Cell lysates were prepared in buffer containing 20 mM HEPES, 250 mM NaCl, 2 mM EDTA, 0.1% NP-40, 2 μg/ml leupeptin, 2 μg/ml aprotinin, 0.5 μg/ml benzamidine, 1 mM DTT and 1 mM PMSF. Cellular proteins (60 μg/ml) were separated on a 7.5% SDS polyacrylamide gel and electrotransferred onto a nitrocellulose membrane. The membrane was probed first with monclonal anti-PARP antibody (PharMingen) and then with anti-mouse antibody conjugated to horse radish peroxidase (HRPO). Protein bands were detected by chemiluminescense (ECL, Amersham). The extent of cleavage of the 116-kDa PARP into 85-kDa and 41-kDa peptide products was used as a measure of apoptosis (Tewari et al., 1995).
Immunoblot Analysis of PARP Degradation. Induction of apoptosis was also examined by proteolytic cleavage of PARP (Nicholson and Thornberry, 1997). Jurkat cells (3×10^6) were treated with 2 μg/ml of F094, avicin D, or avicin G at 37° C. Cell lysates were prepared in a buffer containing 20 mM HEPES, 250 mM NaCl, 2 mM EDTA, 0.1% NP-40, 2 μg/ml leupeptin, 2 μg/ml aprotinin, 0.5 μg/ml benzamidine, 1 mM DTT, and 1 mM PMSF. Cellular proteins (60 μg/ml) were separated on a 7.5% SDS polyacrylamide gel and electrotransferred onto a nitrocellulose membrane. The membrane was probed first with monoclonal anti-PARP antibody (Pharmingen) and then with anti-mouse antibody conjugated to horseradish peroxidase (HRPO). Protein bands were detected by chemiluminescence (ECL). The appearance of an 85 kDa cleavage product was used as a measure of apoptosis.

NF-κB in Jurkat cells = assay: EMSA of TNF-induced NF-κB activation; assay type: cell-based, human; settings: for TNF-induced NF-κB activation: Jurkat cells; for decrease in NF-κB levels: pretreatment with 2 ml (so in the source), TNF 100 pM
Method: Next, in order to further study the mechanism by which the active components inhibited tumor cells, the TNF-alpha induced activation of the transcription factor NF-κB was analyzed in Jurkat cells (3×10^6) which had been treated with 1-2 μg/ml of UA-BRF-004-DELEP-F035 and UA-BRF-004Pod-DELEP-F094. The study was carried out as follows: Jurkat cells were pretreated with 1-2 μg/ml of F035 or F094 for 15 h at 37° C. Cells were harvested and resuspended in 1 ml RPMI and treated with 100 pM of TNF-alpha for 30 min at 37° C. After TNF-alpha treatment, nuclear extracts were prepared according to Schreiber et al (1989). Briefly, the cells were washed with ice cold PBS and suspended in 0.4 ml of lysis buffer (10 mM HEPES, pH 7.9, 10 mM KCl, 0.1 mM EDTA, […], 0.1 mM EGTA, 1 mM dithiothreitol, 0.5 mM PMSF, 2 μg/ml of leupeptin, 2 μg/ml of aprotinin and 0.5 mg/ml benzamidine). The cells were allowed to sit on ice for 15 min and 25 μl of 10% Nonidet-40 was added to the cells. The tubes were mixed on the vortex and microcentrifuged for 30 s. The nuclear pellet was resuspended in 25 μl of ice cold nuclear extraction buffer (20 mM HEPES, pH 7.9, 0.4 M NaCl, 1 mM EDTA, 1 mM EGTA, 1 mM dithiothreitol, 1 mM PMSF, 2 μg/ml leupeptin, 2.0 μg/ml aprotinin and 0.5 mg/ml benzamidine) and tubes were incubated on ice with intermittent agitation. The nuclear extract was microcentrifuged for […] at 4° C. and supernatants were stored at −70° C.
An electrophoretic mobility shift assay was performed by incubating the nuclear extracts (7 μg of protein) with ^32P-labeled NF-κB oligonucleotides (SEQ ID NO:1; NF-κB consensus oligonucleotide; Santa Cruz Biotechnology) in presence of 0.5 μg of poly di-dc in a binding buffer (25 mM HEPES, pH 7.9, 0.5 mM EDTA, 0.5 mM dithiothreitol, 1% Nonidet P-40, 5% glycerol and 50 mM NaCl for 20 min at 37° C.) (Nabel and Baltimore, 1987; Collart et al., 1990; Hassanain et al., 1993). The DNA-protein complex formed was separated from free oligonucleotide on 5% native polyacrylamide gel using buffer containing 50 mM Tris, 200 mM glycine and 1 mM EDTA. The gel was fixed in 10% acetic acid and dried and the bands were visualized using autoradiography with intensifying screen at −70° C.
An EMSA to study the effect of crude (F035) and pure extracts D1 and G1 on TNF (Genetech Inc.) induced NF-κB was done as described earlier. Jurkat cells (1×10^6/ml) were treated with different concentrations of crude and pure extracts for 15 hr at 37° C. Next the cells were exposed to 100 pM of TNF for 15 min at 37° C. Nuclear extracts were prepared as described before. Nuclear extracts were incubated with 16 fmol ^32P-end-labeled 45-mer double-stranded NF-κB oligonucleotide from the human immunodeficiency virus long terminal repeat,
for 15 min at 37° C. in the presence of 2 μg of poly (dI-dC). The DNA protein complex was separated from free oligonucleotide on 7.5% native polyacrylamide gels. The radioactive bands from the dried gels were visualized and quantitated by a PhosphoImager (Molecular Dynamics, Sunnyvale, Calif.) using ImageQuant software.
Treatment of Cells with Monoterpene Glycosides. Jurkat cells were taken at 1×10^6/ml in complete medium and treated with 2 μg/ml of F094, monoterpene/triterpene glycoside D1, or monoterpene/triterpene glycoside G1 for 8-16 h at 37° C. At the end of the treatment, cells were washed in complete medium and counted. An equal number of viable cells was used for different experiments.
Preparation of Cytoplasmic and Nuclear Extracts. Jurkat cells (2×10^6/ml) treated with F094 or the isolated monoterpene/triterpene glycosides G1 and/or D1 were exposed to TNF (1 nM for 15 min) at 37° C. After washing the cells in cold PBS, they were suspended in 0.4 ml of cytoplasmic extraction buffer (10 mM HEPES, pH 7.9, 10 mM KCl, 0.1 mM EDTA, 0.1 mM EGTA, 1 mM DTT, 0.5 mM phenylmethylsulfonylfluoride (PMSF), 2 μg/ml of leupeptin, 2 μg/ml aprotinin, 0.5 mg/ml benzamidine) for 15 min on ice. […]

SMILES	time to (almost) complete cleavage of PARP (PARP in Jurkat cells) [h]	TNF-induced NF-κB activation (NF-κB in Jurkat cells)	decrease in NF-κB levels (NF-κB in Jurkat cells; Jurkat) [%]	potency in inhibiting TNF-induced NF-κB relative to mixture (NF-κB in Jurkat cells; Jurkat)	decrease in TNF-induced NF-κB (NF-κB in Jurkat cells; Jurkat, 0.5 μg/ml for 16 h, TNF 1 nM) [%]	effect of DTT (100 μM, 2 h pretreatment) on inhibition of NF-κB activation (NF-κB in Jurkat cells; Jurkat, 2 μg/ml for 8 h)	inhibition of TNF-induced NF-κB (NF-κB in Jurkat cells; Jurkat, 2 μg/ml for 16 h, TNF 1 nM)	time of maximal inhibition of TNF-induced NF-κB (NF-κB in Jurkat cells; Jurkat, 2 μg/ml, 1-16 hours, TNF 1 nM) [h]
C=C[C@](C)(O)CC/C=C(\CO)C(=O)O[C@H]1[C@H](O)[C@@H](O)[C@H](O[C@@](C)(C=C)CC/C=C(\CO)C(=O)O[C@H]2C[C@]3(C(=O)O[C@@H]4O[C@H](CO)[C@@H](O)[C@H](O)[C@H]4O[C@@H]4O[C@@H](C)[C@H](O[C@@H]5O[C@@H](CO)[C@H](O)[C@H]5O)[C@@H](O[C@@H]5O[C@H](CO)[C@@H](O)[C@H](O)[C@H]5O)[C@H]4O)[C@H](O)C[C@]4(C)C(=CC[C@@H]5[C@@]6(C)CC[C@H](O[C@@H]7O[C@H](CO[C@@H]8O[C@H](C)[C@H](O)[C@H](O)[C@H]8O[C@@H]8OC[C@@H](O)[C@H](O)[C@H]8O)[C@@H](O)[C@H](O)[C@H]7NC(C)=O)C(C)(C)[C@@H]6CC[C@]54C)[C@@H]3CC2(C)C)O[C@@H]1C [Fraction D1]	8 to 16	potent inhibitors	87					
C=C[C@](C)(O)CC/C=C(\C)C(=O)O[C@H]1[C@H](O)[C@@H](O)[C@H](O[C@@](C)(C=C)CC/C=C(\CO)C(=O)O[C@H]2C[C@]3(C(=O)O[C@@H]4O[C@H](CO)[C@@H](O)[C@H](O)[C@H]4O[C@@H]4O[C@@H](C)[C@H](O[C@@H]5O[C@@H](CO)[C@H](O)[C@H]5O)[C@@H](O[C@@H]5O[C@H](CO)[C@@H](O)[C@H](O)[C@H]5O)[C@H]4O)[C@H](O)C[C@]4(C)C(=CC[C@@H]5[C@@]6(C)CC[C@H](O[C@@H]7O[C@H](CO[C@@H]8O[C@H](C)[C@H](O)[C@H](O)[C@H]8O[C@@H]8OC[C@@H](O)[C@H](O)[C@H]8O)[C@@H](O)[C@H](O)[C@H]7NC(C)=O)C(C)(C)[C@@H]6CC[C@]54C)[C@@H]3CC2(C)C)O[C@@H]1C [Fraction G1]	≤ 4	potent inhibitors	54	more potent than the mixture	~50	reversed	almost complete inhibition	16
